Our source for the AC50, EC50 and IC50 values is ChEMBL document CHEMBL1201862, “PubChem BioAssay data set” (2004).

A short description of assay [1]: MDA-MB-231 cell growth inhibition, dose response, cytotoxicity control for RAD54 inhibitor project, CellTiter-Glo luminescence, cherry-pick (AID 651692). It is filed as functional, cell-based. In general terms: Cellular ATP, detected with luciferase, serves as a proxy for viable cell number.
In assay [2] the target is T1, DNA repair and recombination protein RAD54-like (Homo sapiens, UniProt Q92698).
T1 sequence (Q92698 whole entry): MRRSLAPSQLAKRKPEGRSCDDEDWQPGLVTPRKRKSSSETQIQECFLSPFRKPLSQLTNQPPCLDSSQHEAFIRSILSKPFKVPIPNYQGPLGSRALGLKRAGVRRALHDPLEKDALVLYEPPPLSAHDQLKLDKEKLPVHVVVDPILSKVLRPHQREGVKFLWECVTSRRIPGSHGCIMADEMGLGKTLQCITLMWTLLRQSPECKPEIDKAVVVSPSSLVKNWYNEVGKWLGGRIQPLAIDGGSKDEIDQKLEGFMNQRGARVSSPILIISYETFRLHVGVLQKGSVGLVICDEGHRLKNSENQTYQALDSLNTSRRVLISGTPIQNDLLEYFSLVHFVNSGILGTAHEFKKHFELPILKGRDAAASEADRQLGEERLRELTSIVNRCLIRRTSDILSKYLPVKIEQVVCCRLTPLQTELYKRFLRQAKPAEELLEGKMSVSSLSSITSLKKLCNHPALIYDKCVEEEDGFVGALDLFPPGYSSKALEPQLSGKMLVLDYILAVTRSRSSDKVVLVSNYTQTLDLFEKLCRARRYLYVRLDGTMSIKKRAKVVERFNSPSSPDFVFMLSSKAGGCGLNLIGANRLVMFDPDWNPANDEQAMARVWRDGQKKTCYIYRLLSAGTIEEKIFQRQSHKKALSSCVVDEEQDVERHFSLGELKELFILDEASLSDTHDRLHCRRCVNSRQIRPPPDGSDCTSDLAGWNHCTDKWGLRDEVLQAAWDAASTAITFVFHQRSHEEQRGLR
Description: inhibitors of human RAD54 branch migration, confirmation, biochemical, fluorescence, cherry-picked samples, dose series (AID 651657). It is filed as functional.

In assay [3] the target is T2, DNA repair protein RAD52 homolog (Homo sapiens, UniProt P43351).
T2 sequence (P43351 whole entry): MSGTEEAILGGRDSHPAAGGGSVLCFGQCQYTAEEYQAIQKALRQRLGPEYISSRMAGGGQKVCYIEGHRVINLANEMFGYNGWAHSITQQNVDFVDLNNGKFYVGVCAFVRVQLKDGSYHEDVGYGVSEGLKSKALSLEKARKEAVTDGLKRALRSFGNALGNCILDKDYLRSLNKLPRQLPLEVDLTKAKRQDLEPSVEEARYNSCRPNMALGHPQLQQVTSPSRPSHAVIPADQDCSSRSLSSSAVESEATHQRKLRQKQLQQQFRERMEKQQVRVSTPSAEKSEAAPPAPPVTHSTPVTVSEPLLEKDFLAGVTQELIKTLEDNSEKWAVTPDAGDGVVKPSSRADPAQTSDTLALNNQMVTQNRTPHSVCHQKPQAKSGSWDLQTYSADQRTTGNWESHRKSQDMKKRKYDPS
The format is functional, biochemical.

The target of the next assay is Beta-galactosidase (Escherichia coli, UniProt Q8VNN2). Kind of assay: PubChem AID 485352. The format is functional.
The target of assay [4] is G-protein coupled receptor 55 (Homo sapiens, UniProt Q9Y2T6). Kind of assay: GPR55 antagonists blocking LPI-driven arrestin recruitment, primary screen, imaging, U2OS, beta-arrestin-GFP, LPI agonist (AID 2013).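 Further: antagonist potency measured as reduced agonist-driven arrestin aggregation.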 The format is functional. (In general: Recruitment of arrestin is a read-out of receptor activation apart from second messengers.)
The nature of assay [5]: inhibitors of intracellular T. cruzi replication, confirmation, NIH3T3 host cells, beta-gal luminescence (AID 2044).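 Further: intracellular parasites grown in NIH/3T3 mouse fibroblasts as host cells; luminescent beta-galactosidase reporter signal from transgenic T. cruzi replicating inside host cells; inhibitors lower the luminescence signal.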 It is filed as functional, cell-based.
The target of assay [6] is T3, Type-1 angiotensin II receptor (Homo sapiens, UniProt P30556).
T3 sequence (P30556 whole entry): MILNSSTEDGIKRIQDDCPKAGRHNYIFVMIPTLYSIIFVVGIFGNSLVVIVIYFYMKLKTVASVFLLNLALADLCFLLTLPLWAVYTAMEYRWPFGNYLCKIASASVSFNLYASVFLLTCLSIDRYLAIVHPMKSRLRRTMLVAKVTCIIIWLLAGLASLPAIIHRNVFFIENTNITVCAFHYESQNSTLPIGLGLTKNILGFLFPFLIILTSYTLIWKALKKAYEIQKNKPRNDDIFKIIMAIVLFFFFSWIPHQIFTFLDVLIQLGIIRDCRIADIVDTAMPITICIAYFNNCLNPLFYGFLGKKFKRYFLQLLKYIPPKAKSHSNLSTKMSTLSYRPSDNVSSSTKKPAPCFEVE
Description: AT1 receptor antagonists, dose response, selectivity assay for APJ receptor antagonist project, cell-based, uHTS hits (AID 463214).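 Further: antagonist potency against angiotensin II stimulated AT1 response.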 It is filed as functional.

The nature of assay [7]: cytotoxicity toward NIH3T3 fibroblasts, dose response, counter-screen, cell-based, ATP luminescence, mouse fibroblasts (AID 2010).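 Further: cells exposed to compound for about 90 hours before reading.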 It is filed as functional. In general terms: The purpose of a counterscreen is to sort out artefacts and off-target activity.
For assay [8], the target named is T4, Replicative DNA helicase DnaB (Mycobacterium tuberculosis, UniProt P9WMR3).
T4 sequence (P9WMR3 whole entry): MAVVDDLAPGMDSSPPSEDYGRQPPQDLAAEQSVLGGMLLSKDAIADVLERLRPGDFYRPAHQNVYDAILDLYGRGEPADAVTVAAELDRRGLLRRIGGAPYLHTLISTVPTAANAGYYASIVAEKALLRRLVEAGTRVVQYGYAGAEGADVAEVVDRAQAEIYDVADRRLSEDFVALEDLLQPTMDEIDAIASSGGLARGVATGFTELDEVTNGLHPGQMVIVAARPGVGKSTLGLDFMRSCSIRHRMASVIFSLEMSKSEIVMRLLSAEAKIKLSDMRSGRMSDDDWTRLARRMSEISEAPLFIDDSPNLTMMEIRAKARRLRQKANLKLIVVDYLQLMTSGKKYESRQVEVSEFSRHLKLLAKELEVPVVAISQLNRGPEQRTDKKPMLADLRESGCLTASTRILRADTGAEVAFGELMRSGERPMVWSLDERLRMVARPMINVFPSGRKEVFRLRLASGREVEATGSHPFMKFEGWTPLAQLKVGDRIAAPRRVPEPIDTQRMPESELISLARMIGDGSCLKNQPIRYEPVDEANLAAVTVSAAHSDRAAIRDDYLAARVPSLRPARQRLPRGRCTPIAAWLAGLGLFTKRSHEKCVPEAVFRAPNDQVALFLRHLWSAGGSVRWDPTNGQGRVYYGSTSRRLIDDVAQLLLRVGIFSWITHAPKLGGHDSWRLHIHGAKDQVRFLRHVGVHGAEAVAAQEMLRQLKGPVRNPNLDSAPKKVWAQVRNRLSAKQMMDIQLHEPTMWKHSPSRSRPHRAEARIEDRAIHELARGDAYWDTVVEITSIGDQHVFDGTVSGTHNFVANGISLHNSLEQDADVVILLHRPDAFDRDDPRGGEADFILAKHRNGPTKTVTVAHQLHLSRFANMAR
Description: DnaB intein splicing inhibitors, dose response, biochemical, cell-free fluorescence (AID 449749). The format is functional.

The next assay concerns the target T5, Protein RecA (Mycobacterium tuberculosis, UniProt P9WHJ3).
T5 sequence (P9WHJ3 whole entry): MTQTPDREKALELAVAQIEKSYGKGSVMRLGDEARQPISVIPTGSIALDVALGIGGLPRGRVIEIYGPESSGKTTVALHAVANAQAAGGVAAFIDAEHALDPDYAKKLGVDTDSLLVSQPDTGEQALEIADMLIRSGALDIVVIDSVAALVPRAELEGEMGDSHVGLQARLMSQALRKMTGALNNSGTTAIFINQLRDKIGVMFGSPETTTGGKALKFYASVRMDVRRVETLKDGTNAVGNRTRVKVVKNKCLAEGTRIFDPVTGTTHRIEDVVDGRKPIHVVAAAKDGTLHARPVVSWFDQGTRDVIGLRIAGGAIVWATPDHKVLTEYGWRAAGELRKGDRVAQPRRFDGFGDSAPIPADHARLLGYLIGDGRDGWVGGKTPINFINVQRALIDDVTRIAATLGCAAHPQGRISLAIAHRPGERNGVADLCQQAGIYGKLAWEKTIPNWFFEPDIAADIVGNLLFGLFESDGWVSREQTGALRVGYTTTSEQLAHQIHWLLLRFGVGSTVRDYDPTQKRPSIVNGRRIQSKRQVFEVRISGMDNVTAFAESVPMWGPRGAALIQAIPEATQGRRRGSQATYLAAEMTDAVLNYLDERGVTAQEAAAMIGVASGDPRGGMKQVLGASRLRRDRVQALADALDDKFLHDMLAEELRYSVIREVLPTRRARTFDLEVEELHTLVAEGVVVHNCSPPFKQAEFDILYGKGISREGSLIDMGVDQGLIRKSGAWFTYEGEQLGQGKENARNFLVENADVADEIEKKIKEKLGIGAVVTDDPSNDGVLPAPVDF
Kind of assay: Fluorescence Cell-Free Homogeneous Dose Retest to Identify Inhibitors of RecA-Intein Splicing Activity. [Related pubchem assays (depositor defined):AID2097, AID2223, AID489010, AID492950]. The format is functional.

Assay [9] in a line: Fluorescence-based cell-based high throughput dose response assay for inhibitors of the interaction of nucleotide-binding oligomerization domain containing 2 (NOD2) and the receptor-interacting serine-threonine kinase 2 (RIPK2). The format is functional. Conditions: Homo sapiens.
In the next assay the target is Beta Lactamase (Pseudomonas aeruginosa, UniProt Q932Y6). Description: beta-lactamase reporter inhibitor potency, dose response, artefact control for NOD2-RIPK2 interaction inhibitor project, BLA reporter cells, FRET fluorescence (AID 651552). It is filed as functional, cell-based.
Assay [10] can be described thus: miR-122 activators in hepatoma reporter cells, dose response, cell-based, Huh7 psiCHECK-miR122, Renilla luciferase, cherry-picked (AID 651956).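 Further: huh7 hepatoma cells stably carrying a psiCHECK-2 miR-122 sensor plasmid; renilla luciferase signal reporting endogenous miR-122 activity after 48 h compound exposure.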 The format is functional.
Assay [11] is described as follows: A549 cell cytotoxicity, dose response, cytotoxicity control, plate reader, cherry-pick, antagonist series (AID 743412). It is filed as functional, cell-based.
A short description of assay [12]: HepG2 cell cytotoxicity, dose response, cytotoxicity control, plate reader, cherry-pick, antagonist series (AID 743416). The format is functional, cell-based.
The nature of assay [13]: LGR2 antagonists, dose response, cell-based, HEK293, CRE-luciferase reporter, cherry pick, set 2 (AID 743343).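 Further: transfected cells were stimulated with diluted bursicon conditioned medium after compound addition.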 The format is functional.
Assay [14] is described as follows: HEK293T cytotoxicity, dose response, cytotoxicity control for miR-122 modulator project, cell-based, inhibitor set, cherry-pick, set 2 (AID 720697). The format is functional.
The nature of assay [15]: HEK293T cytotoxicity, dose response, cytotoxicity control for miR-122 modulator project, cell-based, activator set, cherry-pick (AID 720690).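 Further: HEK293T human cells scored for general mammalian cytotoxicity.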 The format is functional.
A short description of assay [16]: MC4R antagonists, dose response, counter-screen for LGR2 antagonist project, cell-based, plate reader, cherry pick (AID 743444).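 Further: transfected HEK 293 cells stimulated with alpha-MSH peptide; potency of inhibitors of the alpha-MSH evoked signal.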 It is filed as functional.
Assay [17] is described as follows: HEK293 cell cytotoxicity, dose response, cytotoxicity control, plate reader, cherry-picked samples (AID 743446). The format is functional, cell-based.
Another assay concerns the target Troponin, cardiac muscle (Homo sapiens, UniProt P19429+P45379+P63316). Description: Fluorescence-based biochemical high throughput dose response assay for activators of the calcium sensitivity of cardiac Regulated Thin Filaments (RTF). [Related pubchem assays (depositor defined):AID493008, AID493018, AID504382, AID504383]. It is filed as protein-complex assay.
In assay [18] the target is T6, Sentrin-specific protease 1 (Homo sapiens, UniProt Q9P0U3). Kind of assay: potency of human SENP1 inhibitors, dose response, biochemical, kinetic FRET (AID 651697). It is filed as functional. Conditions: read-out: IC50_Mean.
In assay [19] the target is T6, Sentrin-specific protease 1. Description: Dose response confirmation of small molecule inhibitors of the catalytic domain of the SUMO protease, SENP1 in a FRET assay. It is filed as functional. Conditions: read-out: IC50_Mean.
Assay [20] deals with T7, Sentrin-specific protease 8 (Homo sapiens, UniProt Q96LD8).
T7 sequence (Q96LD8 whole entry): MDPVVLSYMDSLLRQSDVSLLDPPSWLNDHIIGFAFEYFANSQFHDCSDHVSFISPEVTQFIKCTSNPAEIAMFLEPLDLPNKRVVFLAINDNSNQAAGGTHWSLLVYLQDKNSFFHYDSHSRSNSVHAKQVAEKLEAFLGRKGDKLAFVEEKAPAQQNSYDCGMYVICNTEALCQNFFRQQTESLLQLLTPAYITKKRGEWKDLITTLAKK
The format is functional.

Assay [21] concerns the target T7, Sentrin-specific protease 8. The format is functional. This is another data set of the same source.

Structures are written as SMILES. Calls of active or inactive are those of the source.

What is called AC50 is the concentration at which the activity in the assay is half-maximal. `CN(C)CCCNc1cc(-c2ccccc2)nc2cc(-c3cccc(F)c3)nn12`: the AC50 in assay [1] is 24.4 µM (active); in assay [2] it was 21.1 µM (active); in assay [3], 15.1 µM (active).

Usually EC50 stands for the midpoint of the concentration-response curve. As to `CNC(=O)c1nnsc1S(=O)(=O)c1ccc(Cl)cc1`, the EC50 on Beta-galactosidase was > 40 µM (inactive); in assay [5] it was 1.24 µM (active); in assay [7] it was 2.47 µM (active); on Protein RecA it was 14.3 µM (active). The IC50 in [4] was 10.6 µM (inactive); in assay [6] it was 9.67 µM (active); in assay [9], 2.13 µM (active); on Beta Lactamase, 11.3 µM (inactive). For the same compound, the AC50 in assay [8] is 15.3 µM (active); in assay [10], 18.8 µM (active); in assay [11], 8.58 µM (active); in [12], 7.37 µM (active); in assay [13] it was 3.74 µM (active); in assay [14] it was 4.54 µM (active). Also, the AC50 in assay [15] is 2.7 µM (active); in [16] it was 3.28 µM (active); in assay [17] it was 7.5 µM (active).

As to `CC(=O)Oc1ccc(N2C(=O)C3C(C2=O)C(C(=O)c2ccc(Cl)cc2)N2CCCC32)cc1` (stereo not given), the EC50 on Troponin, cardiac muscle was 23.5 µM (inactive). In addition, the IC50 is 7.5 µM (active) in assay [18] and 4.65 µM (active) in [19].

As to `Cn1cnc2c(O)ncc([N+](=O)[O-])c21`, the IC50 is > 100 µM (inactive) in assay [20] and 10.4 µM (active) in [21].
